From patent US7476729B2, “Dbait and uses thereof” (Institut Curie, priority 2003, dated 2009)

Columns and labels:
Hep2 xenografted tumors = experiment: Radiosensitization of Hep2 (HNSCC) tumors xenografted on nude mice; format: in vivo; parameters: Mean TGD: unit not given here
Method: In vivo activity of Dbait molecules in association with radiotherapy was assessed by using nude mice xenografted with human tumors by subcutaneous injection of radio-resistant cell lines (Hep2 derived from head and neck squmous cell carcinoma, HNSCC) or tumor fragments (previously obtained by subcutaneous injection of the U87 cell lines derived of glioblastoma).
Investigations were mainly carried out on the mice xenografted with radio-resistant human HNSCC tumors in order to establish proof of concept in vivo. Irradiation was performed with γ-rays from a ^137Cs source with appropriate protection of mice in order to perform localized irradiation of tumors. Typical assay condition consists of intratumoral injection of an appropriate preparation of 1 nmole Dbait molecules with transfecting agents (cationic dendrimer (Superefct, Qiagene), dioctadecylamidoglycyl-spermine (DOGS, Polyplus transfection), polyethyleneimine (PEI, Polyplus Transfection) according to manufacturer's instruction, 5 hours prior irradiation. A total dose of 30 Gy was delivered in 5 weeks: i) 3×2 Gy/week (about one every two days); ii) 5 Gy/week; iii) 15 Gy/2 weeks.
The size of tumor was measured 2-3 times a week. Treatment by irradiation and intratumoral injection of MEM medium (the Dbait dilution buffer), was used as a control of irradiation treatment without Dbait. The volume of tumor was calculated ([…], where a=length, b=width). The ratio of volume measured at t time over the initial volume (Vt/Vi) was used as indicator of tumor progression. The mice were followed up to 100 days. At least 4 independent series of six animals were tested.
MEM or Dbait32H (SEQ ID NO: 1) was delivered by intratumoral injection 5 hours prior irradiation. The fractionated irradiation dose (2 Gy) was given one of every two days, three times a week. The treatment lasted 5 weeks totaling 30 Gy irradiation. The dots represent the time course of tumor volume of each mouse. The solid lines are the best polynomial fitting.
Tumor growth was monitored during treatment and after in four groups of 10 animals with different treatments (untreated, treated with Dbait32H (SEQ ID NO: 1) alone, treated by irradiation alone, and the combined Dbait32H (SEQ ID NO: 1) and irradiation). Individual tumor growth is indicated for each animal. The treatment protocol was the same as described in FIG. 4.1. The experiment started when the volume of Hep2 tumors reached 150-200 mm^3. For each treatment session, 20 μg Dbait32H (SEQ ID NO: 1) formulated with polyethyleneimine (PEI, Polyplus Transfection, Strasbourg, France) according to the manufacturer's instruction was injected into tumor 5 hours prior 2 Gy irradiation.
For ethical reason, the animals were sacrificed when their tumors reached 2 cm^3. This end-point was used as death in survival analysis. The treatment protocol was described in FIG. 4.3. The five groups were included: untreated, mock-tranfected and irradiated, treated by combined irradiation and increasing amount of Dbait32H (SEQ ID NO: 1) (20, 60 and 120 μg/session). […] Pictures of tumors representative of the groups (untreated, treated with 20 and 60 μg Dbait32H/session associated with 2 Gy irradiation) which were taken 15 days after beginning of treatment, at the end of treatment (35 days) and 13 days after the end of treatment (35+13 days). They provided clear visual comparison of the benefit of the combined Dbait32H (SEQ ID NO: 1) and irradiation treatment.
Descriptive analyses of the tumor response were performed for each treatment and each tumor type. Day 1 was the day of the first treatment session. All the animals were followed for at least 150 days or until their ethical sacrifice. Median lifetime was estimated according to the Kaplan-Meier method. TGD was calculated by subtracting the mean tumor volume quadrupling time of the control group from tumor volume quadrupling times of individual mice in each treated group. […]

SK28 xenografted tumors = experiment: Radiosensitization of SK28 melanoma xenografted on nude mice; format: in vivo; details: SK, 6 × 5 Gy, 6 × 60 μg (3 nmole); for Relative risk: reference C* (Mock + irradiation)
Method: The protocol of Hep2 was described in FIG. 4.3. Other tumors were treated by a modified protocol where a 5 Gy fractionated irradiation was applied in three consecutive days, and followed four day rest, and the treatment was repeated once. The total irradiation dose (6×5 Gy) is equal to that of the protocol used to treat Hep2 tumor (15×2 Gy).
Descriptive analyses of the tumor response were performed for each treatment and each tumor type. Day 1 was the day of the first treatment session. […] Median lifetime was estimated according to the Kaplan-Meier method. TGD was calculated by subtracting the mean tumor volume quadrupling time of the control group from tumor volume quadrupling times of individual mice in each treated group. The mean TGD was calculated for each treated group using the individual measurements.
The analysis used S-Plus 6.2 version software (MathSoft Inc., Seattle, Wash.) and statEL (ad Science, Paris, France). A global Log Rank was first performed for each group with a same tumor type. Then treatments with Dbait were compared to the mock-treated control. All tests were considered significant at the 0.05 significance level.

[1] = Hep2, 15 × 2 Gy, 15 × 120 μg (12 nmole)
[2] = Hep2, no irradiation, 15 × 120 μg (12 nmole)
[3] = Hep2, 15 × 2 Gy, 15 × 20 μg (1 nmole)
[4] = Hep2, 15 × 2 Gy, 15 × 60 μg (3 nmole)
[5] = Hep2, 15 × 2 Gy, 15 × 120 μg (6 nmole)
[6] = Hep2, no irradiation, 15 × 20 μg (1 nmole)

## Dbait32ss: 32-nt single strand DNA (SEQ ID NO: 1) (DNA ACGCACGGGTGTTGGGTCGTTTGTTCGGATCT; DNA, backbone not given here)
Hep2 xenografted tumors; [1]
  Mean % TGD: 374%
  Mean TGD: 29
  Median survival time: 80 days
Hep2 xenografted tumors; Hep2, 15 × 2 Gy, 15 × 120 μg (12 nmole), reference C* (Mock + irradiation)
  Relative risk: 0.57
Hep2 xenografted tumors; [2]
  Mean % TGD: 156%
  Mean TGD: 6
  Median survival time: 46 days
Hep2 xenografted tumors; Hep2, no irradiation, 15 × 120 μg (12 nmole), reference C (untreated)
  Relative risk: 0.71
Hep2 xenografted tumors; high dose (15 × 120 μg)
  in vivo activity (survival of xenografted animals): inactive

## Dbait32H: hairpin double strand DNA with a stem of 32-bp, hexaethyleneglycol linker, phosphorothioate at the free blunt end (DNA ACGCACGGGTGTTGGGTCGTTTGTTCGGATCT; DNA, backbone not given here; hairpin, hexaethyleneglycol loop, 3-bp phosphorothioate at free blunt end)
Hep2 xenografted tumors; 1 nmole (20 μg) intratumoral 5 hours prior irradiation, 3×2 Gy/week, 5 weeks, versus MEM+3×2 Gy
  radiosensitization, tumor growth (Vt/Vi): clearly showed radiosensitization
Hep2 xenografted tumors; 20 μg with PEI intratumoral 5 hours prior 2 Gy, 15 sessions, versus irradiation or Dbait32H alone
  tumor growth: greatly reduced
Hep2 xenografted tumors; 20, 60 and 120 μg/session with 2 Gy irradiation
  survival (Kaplan-Meier), dose dependence: clear dose-dependent effect
Hep2 xenografted tumors; [3]
  Mean % TGD: 561%
  Mean TGD: 49
  Median survival time: 93 days
Hep2 xenografted tumors; Hep2, 15 × 2 Gy, 15 × 20 μg (1 nmole), reference C* (Mock + irradiation)
  Relative risk: 0.42
Hep2 xenografted tumors; [4]
  Mean % TGD: 880%
  Mean TGD: >83
  Median survival time: 129 days
  Number of cured mice: 3
Hep2 xenografted tumors; Hep2, 15 × 2 Gy, 15 × 60 μg (3 nmole), reference C* (Mock + irradiation)
  Relative risk: 0.28
Hep2 xenografted tumors; [5]
  Mean % TGD: 952%
  Mean TGD: >91
  Median survival time: 150 days
  Number of cured mice: 4
Hep2 xenografted tumors; Hep2, 15 × 2 Gy, 15 × 120 μg (6 nmole), reference C* (Mock + irradiation)
  Relative risk: 0.18
Hep2 xenografted tumors; [6]
  Mean % TGD: 168%
  Mean TGD: 7
  Median survival time: 55 days
Hep2 xenografted tumors; Hep2, no irradiation, 15 × 20 μg (1 nmole), reference C (untreated)
  Relative risk: 0.62
Hep2 xenografted tumors; mid-course (7 sessions), 20 μg/session and 2 Gy/session versus irradiation alone
  NMR imaging: necrotic area: necrotic area was more important
Hep2 xenografted tumors; mid-course treatment (7 sessions), 20 days, combined with irradiation versus irradiation alone
  histology: necrosis and apoptosis: enhancement of necrosis and apoptosis was observed
Hep2 xenografted tumors; xenografted tumors on nude mice
  radiosensitization depending on dwell time between intratumoral injection and ionizing radiation: 5 hours>>1 hour
SK28 xenografted tumors
  Mean % TGD: 422%
  Mean TGD: 64
  Median survival time: 176 days
  Number of cured mice: 2
  Relative risk: 0.22

## Dbait8H: hairpin double strand DNA with a stem of 8-bp (DNA ACGCACGG; DNA, backbone not given here; hairpin, hexaethyleneglycol loop, 3-bp phosphorothioate at free blunt end)
SK28 xenografted tumors
  Mean % TGD: 194%
  Mean TGD: 19
  Median survival time: 76 days
  Relative risk: 0.68
